# Assay results as given in patent publication US20260042754A1, “Substituted Bicyclic Heteroaryl Sulfonamide Derivatives for the Treatment of Cancer” (NODUS ONCOLOGY LIMITED, priority 2022, published 2026).
# Where two headings read alike, the source gives them in different places.
# Legend:
# [1] = target: Recombinant His-tagged human PARG protein (Homo sapiens (Human), UniProt Q86W56); assay: PARG enzymatic assay (TFMU-ADPr fluorescence); format: biochemical; conditions: 1 nM enzyme, 200 μM TFMU-ADPr, read after 30 minutes
# Outline: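 Sf21-expressed His-tagged human PARG (1 nM) preincubated 15 min with compound (8-point series, 0.5% DMSO) in pH 7.4 phosphate/KCl/β-mercaptoethanol buffer, then 200 μM TFMU-ADPr added. Fluorescence (ex 380/em 535 nm) read after 30 min; IC50 from 4-parameter logistic fit, no-enzyme control as bottom.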
# NCI-H1650 = assay: Modified cell proliferation assay (CellTiter-Glo), NCI-H1650; format: cell-based; conditions: modified protocol, 384-well, 300 cells per well, 120 h, highest concentration tested 30000 nM, read-out: NCI-H1650 GI50 (high PARG dependency)
# Outline: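 NCI-H1650 or RMUG-S cells seeded at 300 cells/well in RPMI1640 with 10% FCS, compounds added after 24 h, then 120 h at 37 °C/5% CO2. Viability read by CellTiter-Glo luminescence; IC50 from fitted dose-response inflection point. Z′≥0.5 required.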
# Chain of Recombinant His-tagged human PARG protein (Q86W56 whole entry): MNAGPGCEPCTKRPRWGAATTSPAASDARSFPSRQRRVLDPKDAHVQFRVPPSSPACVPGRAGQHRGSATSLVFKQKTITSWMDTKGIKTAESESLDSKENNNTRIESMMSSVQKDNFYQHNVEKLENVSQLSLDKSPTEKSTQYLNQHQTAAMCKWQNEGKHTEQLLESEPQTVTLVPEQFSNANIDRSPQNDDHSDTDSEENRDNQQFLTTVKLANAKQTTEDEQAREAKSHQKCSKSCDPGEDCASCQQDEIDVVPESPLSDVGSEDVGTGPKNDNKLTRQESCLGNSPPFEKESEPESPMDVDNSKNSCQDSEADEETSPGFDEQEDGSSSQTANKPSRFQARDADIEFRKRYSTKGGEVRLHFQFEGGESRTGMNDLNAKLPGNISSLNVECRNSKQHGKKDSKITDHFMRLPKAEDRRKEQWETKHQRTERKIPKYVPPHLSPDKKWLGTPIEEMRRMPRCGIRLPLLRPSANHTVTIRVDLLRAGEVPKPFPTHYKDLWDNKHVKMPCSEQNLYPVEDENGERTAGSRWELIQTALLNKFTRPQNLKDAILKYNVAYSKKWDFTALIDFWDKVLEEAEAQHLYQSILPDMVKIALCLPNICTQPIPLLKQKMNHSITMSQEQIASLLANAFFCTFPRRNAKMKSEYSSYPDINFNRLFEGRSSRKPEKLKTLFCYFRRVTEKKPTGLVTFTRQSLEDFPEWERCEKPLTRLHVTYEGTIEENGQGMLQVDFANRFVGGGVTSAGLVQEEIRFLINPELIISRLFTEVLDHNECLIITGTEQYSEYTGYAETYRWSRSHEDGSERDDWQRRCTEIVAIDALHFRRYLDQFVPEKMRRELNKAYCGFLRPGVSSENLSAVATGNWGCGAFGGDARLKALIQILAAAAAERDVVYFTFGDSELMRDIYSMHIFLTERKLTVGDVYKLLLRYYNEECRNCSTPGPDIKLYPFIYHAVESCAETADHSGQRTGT
Compound,IC50 [1] [nM],"GI50 (NCI-H1650; Homo sapiens, NCI-H1650) [nM]",GI50 (NCI-H1650) [nM]
"CO/N=c1\[nH]c2ccc(S(=O)(=O)NC3(C)CC3)cc2c(=O)n1Cc1cnc(C)s1 [Example 1, 2-methoxyimino-N-(1-methylcyclopropyl)-3-[(2-methylthiazol-5-yl)methyl]-4-oxo-1H-quinazoline-6-sulfonamide]",< 30,500 to 2000,
"Cc1nc(C)c(CO/N=c2\[nH]c3ccc(S(=O)(=O)NC4(C)CC4)cc3c(=O)n2Cc2cnn(C)c2)s1 [Example 3, 2-[(2,4-dimethylthiazol-5-yl)methoxyimino]-N-(1-methylcyclopropyl)-3-[(1-methylpyrazol-4-yl)methyl]-4-oxo-1H-quinazoline-6-sulfonamide]",< 30,> 2000,
"CO/N=c1\[nH]c2ccc(S(=O)(=O)NC3(C)COC3)cc2c(=O)n1Cc1cnn(C)c1 [Example 2, 2-methoxyimino-N-(3-methyloxetan-3-yl)-3-[(1-methylpyrazol-4-yl)methyl]-4-oxo-1H-quinazoline-6-sulfonamide]",30 to 99,500 to 2000,

# The remaining lines, values ahead:
IC50 [1] [nM],"GI50 (NCI-H1650; Homo sapiens, NCI-H1650) [nM]",GI50 (NCI-H1650) [nM],Compound
< 30,> 2000,,"CO/N=c1\[nH]c2c(-c3ccc(C(=O)N(C)C)cc3)cc(S(=O)(=O)NC3(C)CC3)cc2c(=O)n1Cc1cnn(C)c1 [Example 5, 4-[2-methoxyimino-6-[(1-methylcyclopropyl)sulfamoyl]-3-[(1-methylpyrazol-4-yl)methyl]-4-oxo-1H-quinazolin-8-yl]-N,N-dimethyl-benzamide]"
< 30,< 500,,"CO/N=c1\[nH]c2c(N3CCN[C@H](C)C3)cc(S(=O)(=O)NC3(C)CC3)cc2c(=O)n1Cc1cnn(C)c1 [Example 7, 2-methoxyimino-N-(1-methylcyclopropyl)-3-[(1-methylpyrazol-4-yl)methyl]-4-oxo-8-[(3R)-3-methylpiperazin-1-yl]-1H-quinazoline-6-sulfonamide]"
< 30,,< 500,"CON=c1[nH]c2c(N3CCN(C(=O)C4(C)CC4)[C@H](C)C3)cc(S(=O)(=O)NC3(C)CC3)cc2c(=O)n1Cc1cnn(C)c1 [Example 8, 2-methoxyimino-N-(1-methylcyclopropyl)-3-[(1-methylpyrazol-4-yl)methyl]-4-oxo-8-[(3R)-3-methyl-4-(1-methylcyclopropanecarbonyl)piperazin-1-yl]-1H-quinazoline-6-sulfonamide]"
